From publication PMC8373063 (2021)

Tests used:
[1] = test system: RNA Seq6 (RNA, single strand) UGAAGGAAGGU; assay: fluorescence polarization; conditions: 100 mM NaCl; 20 mM HEPES, 25 °C, 0.5 μM compound
[2] = test system: DNA Seq6 (DNA, single strand) TGAAGGAAGGT; assay: fluorescence polarization; conditions: 100 mM NaCl, 1 mM MgCl2; 20 mM HEPES, 25 °C, 0.5 μM compound
[3] = test system: DNA Seq6 (DNA, single strand) TGAAGGAAGGT; assay: fluorescence polarization; conditions: 100 mM NaCl, 1 mM MgCl2; 20 mM HEPES, 25 °C, 0.5 μM compound; remark: listed apart in the source
[4] = test system: RNA Seq4 (immobilised) (RNA, single strand) AAGAAGGAAGGUGC; assay: SPR, immobilised RNA; conditions: running buffer not shown; SMN-C5 up to 40 μM
[5] = test system: DNA Seq6 (DNA, single strand) TGAAGGAAGGT; assay: competitive fluorescence polarization; conditions: 100 mM NaCl, 1 mM MgCl2, 20 mM HEPES, tracer 0.5 μM SMN-C2 displaced from 25 μM DNA Seq6
[6] = test system: RNA Seq4 (RNA, single strand) AAGAAGGAAGGUGC; assay: fluorescence polarization; conditions: 100 mM NaCl; 20 mM HEPES, 25 °C, 0.5 μM compound
[7] = test system: RNA Seq6 (RNA, single strand) UGAAGGAAGGU; assay: fluorescence polarization; conditions: 100 mM NaCl; 20 mM HEPES, 25 °C, 0.5 μM compound; remark: listed apart in the source

Row | Kd [1] | Kd [2] | Structure (SMILES) | also measured
1 | 30.9 ± 6.7 µM | 9.9 ± 0.9 µM | CN1CCN(c2cc(F)c3cc(-c4ccc(Cl)cc4)c(=O)oc3c2)CC1 | 
2 | 32.8 ± 5.6 µM | 18.7 ± 4.0 µM | CN1CCN(c2cc(F)c3cc(-c4cccc(Cl)c4)c(=O)oc3c2)CC1 | 
3 | 30.6 ± 12.3 µM | 8.2 ± 0.7 µM | CN1CCN(c2ccc3cc(-c4ccc(Cl)cc4)c(=O)oc3c2)CC1 | 
4 | 35.9 ± 14.8 µM | 13.9 ± 1.1 µM | CN1CCN(c2ccc3cc(-c4cccc(Cl)c4)c(=O)oc3c2)CC1 | 
5 | > >100 μM |  | CN1CCN(c2ccc3cc(-c4ccccc4Cl)c(=O)oc3c2)CC1 | Kd [3]: > 100 µM
6 | 11.4 ± 0.7 µM |  | COc1cn2cc(-c3cc4ccc(N5CCNCC5)cc4oc3=O)nc2cn1 | Kd [3]: 1.4 ± 0.2 µM
7 | > >100 μM | > >100 μM | Cc1c(-c2ccc(Cl)cc2)c(=O)oc2cc(N3CCN(C)CC3)ccc12 | 
8 | > >100 μM | > >100 μM | Cc1c(-c2cccc(Cl)c2)c(=O)oc2cc(N3CCN(C)CC3)ccc12 | 
9 |  |  | Cc1cn2cc(-c3cc(=O)n4cc(N5CCN(C)CC5)ccc4n3)cc(F)c2n1 | Kd [4]: 8.0 µM; apparent Kd [5]: 5.8 ± 2.5 µM
10 | 51.2 ± 4.9 µM | 4.0 ± 0.3 µM | Cc1cn2cc(-c3cc4ccc(N5CCN(CCNC(=O)OC(C)(C)C)[C@@H](C)C5)cc4oc3=O)nc2c(C)n1 | Kd [6]: 37.5 ± 14.0 µM
11 |  |  | Cc1cn2cc(-c3cc4ccc(N5CCN[C@@H](C)C5)cc4oc3=O)nc2c(C)n1 | Kd [7]: 18.5 ± 5.4 µM; Kd [3]: 2.9 ± 0.3 µM; Kd [6]: 25.4 ± 7.3 µM
12 | 14.5 ± 2.3 µM | 2.8 ± 0.5 µM | O=c1oc2cc(N3CCNCC3)ccc2cc1-c1cn2ccccc2n1 | 
